Drawing on US8969386B2, “Modulators of CFTR” (Vertex Pharmaceuticals Incorporated, priority 2007, dated 2015), this text covers EC50 and Emax for 42 compounds.

Usually pEC50 stands for −log10 of the EC50, conventionally taken in molar units.

This assay addresses T1, ΔF508-CFTR (Homo sapiens, UniProt P13569, DEL508-508).
T1 construct: expressed in transfected cells
Kind of assay: ΔF508-CFTR correction, membrane potential optical (FRET/VIPR) assay. It is filed as cell-based. Particulars: NIH3T3 mouse fibroblasts stably expressing ΔF508-CFTR; for Emax: read-out: % Efficacy. From the text:
Assays for Detecting and Measuring ΔF508-CFTR Correction Properties of Compounds
Membrane potential optical methods for assaying ΔF508-CFTR modulation properties of compounds
The optical membrane potential assay utilized voltage-sensitive FRET sensors described by Gonzalez and Tsien (See Gonzalez, J. E. and R. Y. Tsien (1995) “Voltage sensing by fluorescence resonance energy transfer in single cells” Biophys J 69(4): 1272-80, and Gonzalez, J. E. and R. Y. Tsien (1997) “Improved indicators of cell membrane potential that use fluorescence resonance energy transfer” Chem Biol 4(4): 269-77) in combination with instrumentation for measuring fluorescence changes such as the Voltage/Ion Probe Reader (VIPR) (See Gonzalez, J. E., K. Oades, et al. (1999) “Cell-based assays and instrumentation for screening ion-channel targets” Drug Discov Today 4(9): 431-439).
These voltage sensitive assays are based on the change in fluorescence resonant energy transfer (FRET) between the membrane-soluble, voltage-sensitive dye, DiSBAC2(3), and a fluorescent phospholipid, CC2-DMPE, which is attached to the outer leaflet of the plasma membrane and acts as a FRET donor. Changes in membrane potential (Vm) cause the negatively charged DiSBAC2(3) to redistribute across the plasma membrane and the amount of energy transfer from CC2-DMPE changes accordingly. The changes in fluorescence emission were monitored using VIPR™ II, which is an integrated liquid handler and fluorescent detector designed to conduct cell-based screens in 96- or 384-well microtiter plates.
1. Identification of Correction Compounds
To identify small molecules that correct the trafficking defect associated with ΔF508-CFTR; a single-addition HTS assay format was developed. The cells were incubated in serum-free medium for 16 hrs at 37° C. in the presence or absence (negative control) of test compound. As a positive control, cells plated in 384-well plates were incubated for 16 hrs at 27° C. to “temperature-correct” ΔF508-CFTR. The cells were subsequently rinsed 3× with Krebs Ringers solution and loaded with the voltage-sensitive dyes. To activate ΔF508-CFTR, 10 μM forskolin and the CFTR potentiator, genistein (20 μM), were added along with Cl^−-free medium to each well. The addition of Cl^−-free medium promoted Cl^− efflux in response to ΔF508-CFTR activation and the resulting membrane depolarization was optically monitored using the FRET-based voltage-sensor dyes.
NIH3T3 mouse fibroblasts stably expressing ΔF508-CFTR are used for optical measurements of membrane potential. The cells are maintained at 37° C. in 5% CO2 and 90% humidity in Dulbecco's modified Eagle's medium supplemented with 2 mM glutamine, 10% fetal bovine serum, 1×NEAA, β-ME, 1× pen/strep, and 25 mM HEPES in 175 cm^2 culture flasks. For all optical assays, the cells were seeded at 30,000/well in 384-well matrigel-coated plates and cultured for 2 hrs at 37° C. before culturing at 27° C. for 24 hrs for the potentiator assay. For the correction assays, the cells are cultured at 27° C. or 37° C. with and without compounds for 16-24 hours Electrophysiological Assays for assaying ΔF508-CFTR modulation properties of compounds

pEC50: −log10 of the molar value. Some results are limits rather than exact numbers.

T1 sequence (P13569 with tags, fused parts or gaps DEL508-508): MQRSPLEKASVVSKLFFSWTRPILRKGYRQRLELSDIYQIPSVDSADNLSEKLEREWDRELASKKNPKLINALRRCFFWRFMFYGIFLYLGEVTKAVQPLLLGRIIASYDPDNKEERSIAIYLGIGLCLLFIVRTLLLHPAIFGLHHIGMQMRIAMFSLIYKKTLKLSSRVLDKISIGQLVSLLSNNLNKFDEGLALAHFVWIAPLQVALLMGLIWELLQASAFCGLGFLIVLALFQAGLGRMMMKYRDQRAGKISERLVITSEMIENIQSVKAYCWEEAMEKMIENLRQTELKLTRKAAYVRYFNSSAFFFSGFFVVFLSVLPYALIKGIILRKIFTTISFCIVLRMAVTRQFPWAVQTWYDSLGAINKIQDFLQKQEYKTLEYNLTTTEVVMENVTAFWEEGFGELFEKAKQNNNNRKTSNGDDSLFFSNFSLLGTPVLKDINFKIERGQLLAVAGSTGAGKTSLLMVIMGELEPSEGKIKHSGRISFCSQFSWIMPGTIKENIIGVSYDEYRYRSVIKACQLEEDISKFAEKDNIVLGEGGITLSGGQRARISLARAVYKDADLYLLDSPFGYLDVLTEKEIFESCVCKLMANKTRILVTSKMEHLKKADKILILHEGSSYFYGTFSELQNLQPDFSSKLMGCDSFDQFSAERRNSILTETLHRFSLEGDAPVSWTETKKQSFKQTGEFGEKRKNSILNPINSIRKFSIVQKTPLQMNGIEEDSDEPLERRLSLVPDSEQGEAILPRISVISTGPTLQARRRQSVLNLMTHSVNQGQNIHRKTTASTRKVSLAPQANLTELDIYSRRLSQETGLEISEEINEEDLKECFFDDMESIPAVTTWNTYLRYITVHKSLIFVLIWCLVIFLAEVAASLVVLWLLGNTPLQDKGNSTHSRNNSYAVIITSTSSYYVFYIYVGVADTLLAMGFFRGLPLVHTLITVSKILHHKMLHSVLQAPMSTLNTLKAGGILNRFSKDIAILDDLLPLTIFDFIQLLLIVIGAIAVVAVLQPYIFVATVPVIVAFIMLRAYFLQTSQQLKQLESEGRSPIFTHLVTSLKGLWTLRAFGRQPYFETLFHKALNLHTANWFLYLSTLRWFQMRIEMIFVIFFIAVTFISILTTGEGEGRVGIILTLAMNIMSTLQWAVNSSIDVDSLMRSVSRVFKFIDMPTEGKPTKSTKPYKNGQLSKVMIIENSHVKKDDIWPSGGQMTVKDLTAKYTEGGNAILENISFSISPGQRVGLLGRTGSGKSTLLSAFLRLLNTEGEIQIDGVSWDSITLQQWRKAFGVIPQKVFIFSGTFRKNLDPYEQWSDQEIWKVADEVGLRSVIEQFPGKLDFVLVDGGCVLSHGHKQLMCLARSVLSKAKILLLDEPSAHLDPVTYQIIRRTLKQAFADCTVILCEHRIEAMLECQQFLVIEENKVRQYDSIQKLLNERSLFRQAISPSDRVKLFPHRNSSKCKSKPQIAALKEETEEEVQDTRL

Consider `Cc1ccc(NC(=O)C2(c3ccc4c(c3)OC(F)(F)O4)CC2)nc1-c1c[nH]c(=O)c(CO)c1` [Compound 1], for which the negative-log EC50 (pEC50) was more than 5.70 and the Emax lay within 50 to 100%.

As for `COc1ccc(C2(C(=O)Nc3ccc(C)c(-c4ccc(OC)nc4)n3)CC2)cc1` [Compound 2], the pEC50 is more than 5.70 and the Emax was 50 to 100%.

Turning to `COc1cc(-c2cc(C)cc(NC(=O)C3(c4ccc5c(c4)OC(F)(F)O5)CC3)n2)ccn1` [Compound 3], the pEC50 is more than 5.70 and the Emax was more than 100%.

Take `CC(=O)Nc1cc(-c2nc(NC(=O)C3(c4ccc5c(c4)OC(F)(F)O5)CC3)ccc2C)c[nH]c1=O` [Compound 4]: the pEC50 was more than 5.70 and the Emax was 50 to 100%.

As to `CCc1ccc(NC(=O)C2(c3ccc4c(c3)OC(F)(F)O4)CC2)nc1-c1ccc(=O)[nH]c1` [Compound 5], the negative logarithm of the EC50 (pEC50) is more than 5.70 and the Emax was in the range of 50 to 100%.

For the compound `Cc1ccc(NC(=O)C2(c3ccc4c(c3)OC(F)(F)O4)CC2)nc1-c1c[nH]c(=O)c(C)c1` [Compound 6], the negative logarithm of the EC50 (pEC50) was more than 5.70 and the Emax is more than 100%.

As for `COc1ccc(C2(C(=O)Nc3ccc(C)c(-c4cccnc4OC)n3)CC2)cc1` [Compound 7], the negative logarithm of the EC50 (pEC50) is more than 5.70 and the Emax is 50 to 100%.

For `COc1ncc(C)cc1-c1nc(NC(=O)C2(c3ccc4c(c3)OC(F)(F)O4)CC2)ccc1C` [Compound 8], the pEC50 is more than 5.70 and the Emax fell in the range of 50 to 100%.

`COc1ncc(-c2nc(NC(=O)C3(c4ccc5c(c4)OC(F)(F)O5)CC3)ccc2C)cc1N` [Compound 9]: the pEC50 is more than 5.70 and the Emax was more than 100%.

Turning to `COc1ccc(C2(C(=O)Nc3ccc(C)c(-c4ccc[nH]c4=O)n3)CC2)cc1` [Compound 10], the negative logarithm of the EC50 (pEC50) is more than 5.70 and the Emax was in the range of 50 to 100%.

With `COc1cc(-c2nc(NC(=O)C3(c4ccc5c(c4)OC(F)(F)O5)CC3)ccc2C)ccn1` [Compound 11], the pEC50 is more than 5.70 and the Emax was more than 100%.

Consider `Cc1ccc(NC(=O)C2(c3ccc4c(c3)OC(F)(F)O4)CC2)nc1-c1ccc(=O)[nH]c1` [Compound 12], for which the negative logarithm of the EC50 (pEC50) is more than 5.70 and the Emax fell in the range of 50 to 100%.

As for `Cc1ccc(NC(=O)C2(c3ccc4c(c3)OC(F)(F)O4)CC2)nc1-c1ccc(=O)n(CC(=O)O)c1` [Compound 13], the pEC50 is less than 5.30 and the Emax lay in the range of 50 to 100%.

As for `Cc1cc(=O)[nH]cc1-c1nc(NC(=O)C2(c3ccc4c(c3)OC(F)(F)O4)CC2)ccc1C` [Compound 14], the pEC50 was more than 5.70 and the Emax fell in the range of 50 to 100%.

Turning to `COc1ncccc1-c1nc(NC(=O)C2(c3ccc4c(c3)OC(F)(F)O4)CC2)ccc1C` [Compound 15], the pEC50 was more than 5.70 and the Emax is more than 100%.

Turning to `COC(=O)Cn1ccc(-c2nc(NC(=O)C3(c4ccc5c(c4)OC(F)(F)O5)CC3)ccc2C)cc1=O` [Compound 16], the negative logarithm of the EC50 (pEC50) is more than 5.70 and the Emax was in the range of 50 to 100%.

Turning to `Cc1cc(NC(=O)C2(c3ccc4c(c3)OC(F)(F)O4)CC2)nc(-c2ccc[nH]c2=O)c1` [Compound 17], the pEC50 was more than 5.70 and the Emax was more than 100%.

In the case of `COc1cc(C)c(-c2nc(NC(=O)C3(c4ccc5c(c4)OC(F)(F)O5)CC3)ccc2C)cn1` [Compound 18], the negative logarithm of the EC50 (pEC50) is more than 5.70 and the Emax was more than 100%.

On to `Cc1cc(NC(=O)C2(c3ccc4c(c3)OC(F)(F)O4)CC2)nc(-c2cc[nH]c(=O)c2)c1` [Compound 19], for which the negative logarithm of the EC50 (pEC50) is more than 5.70 and the Emax is more than 100%.

For the compound `Cc1ccc(NC(=O)C2(c3ccc4c(c3)OC(F)(F)O4)CC2)nc1-c1ccc(=O)n(CCO)c1` [Compound 20], the pEC50 is more than 5.70 and the Emax was more than 100%.

`COc1cc(-c2nc(NC(=O)C3(c4ccc5c(c4)OC(F)(F)O5)CC3)ccc2C)c[nH]c1=O` [Compound 21]: the pEC50 is more than 5.70 and the Emax lay in the range of 50 to 100%.

Regarding `O=C(Nc1ccc(Cl)c(-c2ccc(=O)[nH]c2)n1)C1(c2ccc3c(c2)OC(F)(F)O3)CC1` [Compound 22], the pEC50 was more than 5.70 and the Emax fell in the range of 50 to 100%.

Take `Cc1ccc(NC(=O)C2(c3ccc4c(c3)OC(F)(F)O4)CC2)nc1-c1c[nH]c(=O)c(C(=O)O)c1` [Compound 23]: the pEC50 is 5.30 to 5.70 and the Emax was in the range of 50 to 100%.

As for `COc1ccc(-c2nc(NC(=O)C3(c4ccc5c(c4)OC(F)(F)O5)CC3)ccc2Cl)cn1` [Compound 24], the negative-log EC50 (pEC50) is more than 5.70 and the Emax was more than 100%.

With `Cc1ccc(NC(=O)C2(c3ccc4c(c3)OC(F)(F)O4)CC2)nc1-c1c[nH]c(=O)c(Cl)c1` [Compound 25], the negative logarithm of the EC50 (pEC50) was more than 5.70 and the Emax was more than 100%.

In the case of `COc1ccc(C2(C(=O)Nc3ccc(C)c(-c4cc[nH]c(=O)c4)n3)CC2)cc1` [Compound 26], the pEC50 is more than 5.70 and the Emax was 50 to 100%.

As for `Cc1cc(NC(=O)C2(c3ccc4c(c3)OC(F)(F)O4)CC2)nc(-c2ccc(=O)[nH]c2)c1` [Compound 27], the negative logarithm of the EC50 (pEC50) is more than 5.70 and the Emax is more than 100%.

In the case of `Cc1ccc(NC(=O)C2(c3ccc4c(c3)OC(F)(F)O4)CC2)nc1-c1ccc(=O)[nH]c1O` [Compound 28], the pEC50 is more than 5.70 and the Emax fell in the range of 50 to 100%.

Regarding `Cc1ccc(NC(=O)C2(c3ccc4c(c3)OC(F)(F)O4)CC2)nc1-c1ccn(CCO)c(=O)c1` [Compound 29], the pEC50 was more than 5.70 and the Emax is more than 100%.

As for `CCc1ccc(NC(=O)C2(c3ccc4c(c3)OC(F)(F)O4)CC2)nc1-c1ccc(OC)nc1` [Compound 30], the pEC50 is more than 5.70 and the Emax was in the range of 50 to 100%.

Regarding `Cc1c[nH]c(=O)c(-c2nc(NC(=O)C3(c4ccc5c(c4)OC(F)(F)O5)CC3)ccc2C)c1` [Compound 31], the negative-log EC50 (pEC50) is more than 5.70 and the Emax was 50 to 100%.

For `CNC(=O)c1cc(-c2nc(NC(=O)C3(c4ccc5c(c4)OC(F)(F)O5)CC3)ccc2C)c[nH]c1=O` [Compound 32], the pEC50 is 5.30 to 5.70 and the Emax fell in the range of 50 to 100%.

For `COc1ncc(-c2nc(NC(=O)C3(c4ccc5c(c4)OC(F)(F)O5)CC3)ccc2C)cc1NC(C)=O` [Compound 33], the negative logarithm of the EC50 (pEC50) was more than 5.70 and the Emax was more than 100%.

Take `Cc1ccc(NC(=O)C2(c3ccc4c(c3)OC(F)(F)O4)CC2)nc1-c1c[nH]c(=O)c(C(N)=O)c1` [Compound 34]: the pEC50 was 5.30 to 5.70 and the Emax is 50 to 100%.

Turning to `COc1cccc(-c2nc(NC(=O)C3(c4ccc5c(c4)OC(F)(F)O5)CC3)ccc2C)n1` [Compound 35], the pEC50 was more than 5.70 and the Emax is 50 to 100%.

For `COc1ccc(-c2nc(NC(=O)C3(c4ccc5c(c4)OC(F)(F)O5)CC3)ccc2C)c(C)n1` [Compound 36], the pEC50 was more than 5.70 and the Emax is more than 100%.

On to `COc1ccc(-c2nc(NC(=O)C3(c4ccc5c(c4)OC(F)(F)O5)CC3)ccc2C)cn1` [Compound 37], for which the pEC50 is more than 5.70 and the Emax was more than 100%.

Consider `COc1ccc(-c2cc(C)cc(NC(=O)C3(c4ccc5c(c4)OC(F)(F)O5)CC3)n2)cn1` [Compound 38], for which the pEC50 was more than 5.70 and the Emax was more than 100%.

On to `Cc1ccc(NC(=O)C2(c3ccc4c(c3)OC(F)(F)O4)CC2)nc1-c1c[nH]c(=O)c(F)c1` [Compound 39], for which the negative-log EC50 (pEC50) is more than 5.70 and the Emax fell in the range of 50 to 100%.

Consider `Cc1ccc(NC(=O)C2(c3ccc4c(c3)OC(F)(F)O4)CC2)nc1-c1ccc(=O)[nH]c1C` [Compound 40], for which the pEC50 is more than 5.70 and the Emax was more than 100%.

Turning to `Cc1ccc(NC(=O)C2(c3ccc4c(c3)OC(F)(F)O4)CC2)nc1-c1ccn(C)c(=O)c1` [Compound 41], the negative logarithm of the EC50 (pEC50) is more than 5.70 and the Emax was more than 100%.

In the case of `Cc1ccc(NC(=O)C2(c3ccc4c(c3)OC(F)(F)O4)CC2)nc1-c1c[nH]c(=O)c(C#N)c1` [Compound 42], the pEC50 was more than 5.70 and the Emax fell in the range of 50 to 100%.
